8 compounds from patent publication US7829568B2, “Substituted 5,6,7,8-tetrahydroimidazo[1,2-a]pyridin-2-ylamine compounds and their use for producing drugs” (Gruenenthal GmbH, priority 2005, dated 2010) can be followed below.

The structures appear in SMILES notation.

T1 sequence (P35372 whole entry): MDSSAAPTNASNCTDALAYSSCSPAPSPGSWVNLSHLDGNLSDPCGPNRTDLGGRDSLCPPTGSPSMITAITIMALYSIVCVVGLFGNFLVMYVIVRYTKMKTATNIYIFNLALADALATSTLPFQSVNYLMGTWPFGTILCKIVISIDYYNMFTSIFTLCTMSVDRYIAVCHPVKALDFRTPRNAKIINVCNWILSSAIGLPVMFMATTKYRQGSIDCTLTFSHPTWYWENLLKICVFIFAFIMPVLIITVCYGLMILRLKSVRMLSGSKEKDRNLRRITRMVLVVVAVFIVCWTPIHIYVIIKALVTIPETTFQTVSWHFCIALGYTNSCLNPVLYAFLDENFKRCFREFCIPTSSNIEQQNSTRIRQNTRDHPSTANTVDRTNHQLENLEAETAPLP

The first assay has as its target T1, human μ-opioid receptor (Homo sapiens, UniProt P35372).
T1 construct: purchased NEN, Zaventem, Belgium RB-HOM; host or cells: CHO-K1 cells (membrane preparation)
As to the kind of experiment: Affinity to the human μ-opioid receptor ([3H]-naloxone displacement, SPA). In kind it is binding. As to conditions: compound 1 μmol/l; 1 nmol/l [3H]-naloxone; CHO-K1 membrane preparation. On the procedure: III. Method for Determining the Affinity to the Human μ-Opioid Receptor
The receptor affinity to the human μ-opioid receptor is determined in a homogeneous batch in microtitre plates. In this case, dilution series of the respective substituted 5,6,7,8-tetrahydro-imidazo[1,2-a]pyridin-2-ylamine compound of the general formula I to be tested are incubated with a receptor membrane preparation (15-40 μg of protein per 250 μl of the incubation batch) of CHO-K1 cells which express the human μ-opioid receptor (μ-opiate receptor) (RB-HOM receptor membrane preparation from NEN, Zaventem, Belgium) in the presence of 1 nmol/l of the radioactive ligands [^3H]-naloxone (NET719, NEN, Zaventem, Belgium) and also 1 mg of WGA SPA beads (wheat germ agglutinin SPA beads from Amersham Pharmacia, Freiburg, Germany) in a total volume of 250 μl at room temperature for 90 minutes. 50 mmol/l tris-HCl are used as an incubation buffer with 0.05% by weight of sodium azide and 0.06% by weight of bovine serum albumin. 25 μmol/l naloxone are also added to determine the non-specific bond. At the end of the 90 minute incubation period, the microtitre plates are centrifuged off for 20 minutes at 1000 g and the radioactivity is measured with a β-counter (Microbeta-Trilux, PerkinElmer Wallac, Freiburg, Germany. The percentage of displacement of the radioactive ligand from its bond to the human μ-opiate receptor at a concentration of 1 μmol/l of the compound to be tested is determined and indicated as a % inhibition of the specific bond.
As for `CCCCN(C(=O)c1cccc(Cl)c1)c1nc2n(c1C(=O)NCCSCc1c(Cl)cccc1Cl)CCCC2` [Example 95, 2-[butyl-(3-chloro-benzoyl)-amino]-5,6,7,8-tetrahydro-imidazo[1,2-a]pyridine-3-carboxylic acid [2-(2,6-dichlor-benzylsulphanyl)-ethyl]-amide], the “μ-opioid receptor (man) (% inhibition)” value was determined as 53%.

Still in this assay, the particulars now being: compound 1 μmol/l; 1 nmol/l [3H]-naloxone; CHO-K1 membrane preparation; read-out: μ-opioid receptor (man) (% inhibition).
By inhibition is commonly meant the percentage by which the read-out fell short of the control. Take `CN(C(=O)c1cccc(Cl)c1)c1nc2n(c1C(=O)N1CCN(CCc3ccccc3)CC1)CCCC2` [Example 106, 3-chloro-N-methyl-N-[3-(4-phenethyl-piperazine-1-carbonyl)-5,6,7,8-tetrahydro-imidazo[1,2-a]pyridin-2-yl]-benzamide]: the inhibition at 1 µM is 30%.

As for `CCCCN(C(=O)c1cccc(Cl)c1)c1nc2n(c1C(=O)Nc1ccc3c(c1)OCCO3)CCCC2` [Example 181, 2-[butyl-(3-chloro-benzoyl)-amino]-5,6,7,8-tetrahydro-imidazo[1,2-a]pyridine-3-carboxylic acid (2,3-dihydro-benzo[1,4]dioxin-6-yl)-amide], the inhibition at 1 µM was determined as 58%.

Take `CC(CCc1ccccc1)NC(=O)c1c(N(C)C(=O)c2cccc3ccccc23)nc2n1CCCC2` (centres unmarked) [Example 112, 2-[methyl-(naphthalene-1-carbonyl)-amino]-5,6,7,8-tetrahydro-imidazo[1,2-a]pyridine-3-carboxylic acid (1-methyl-3-phenyl-propyl)-amide]: the inhibition at 1 µM amounted to 51%.

As for `CN(C(=O)Cc1ccccc1)c1nc2n(c1C(=O)N1CCN(c3ccccc3)CC1)CCCC2` [Example 186, N-methyl-2-phenyl-N-[3-(4-phenyl-piperazine-1-carbonyl)-5,6,7,8-tetrahydro-imidazo[1,2-a]pyridin-2-yl]-acetamide], the inhibition at 1 µM stood at 48%.

For the compound `CN(C(=O)c1cccc2ccccc12)c1nc2n(c1C(=O)NCc1cc(C(F)(F)F)cc(C(F)(F)F)c1)CCCC2` [Example 15, 2-[Methyl-(naphthalene-1-carbonyl)-amino]-5,6,7,8-tetrahydro-imidazo[1,2-a]pyridine-3-carboxylic acid 3,5-bis-trifluoromethyl-benzylamide], the inhibition at 1 µM was found to be 35%.

As to `CCCCN(C(=O)c1ccc(F)c(F)c1)c1nc2n(c1C(=O)NCCC(c1ccccc1)c1ccccc1)CCCC2` [Example 180, 2-[butyl-(3,4-difluoro-benzoyl)-amino]-5,6,7,8-tetrahydro-imidazo[1,2-a]pyridine-3-carboxylic acid (3,3-diphenyl-propyl)-amide], the inhibition at 1 µM was 47%.

`Cc1cc(Cl)cc(Cl)c1CNC(=O)c1c(N(C)C(=O)c2ccccc2)nc2n1CCCC2` [Example 188, 2-(benzoyl-methyl-amino)-5,6,7,8-tetrahydro-imidazo[1,2-a]pyridine-3-carboxylic acid 2,4-dichloro-6-methyl-benzylamide]: the inhibition at 1 µM worked out at 59%.
